This note sets out measurements from ChEMBL document CHEMBL1135005, “Synthesis and biological evaluation of aristolactams” (Bioorg Med Chem Lett, 2002).

Structures are written as SMILES.

This assay deals with L1210. Description: In vitro cytotoxic activity against L1210 murine leukemia cells. Format: functional, cell-based. The following applies: Mus musculus.
On to `COc1cc2c3c(cc4cc(OC)c(OCc5ccccc5)c(OC)c4c3c1)N(C)C2=O`, for which the IC50 – broadly, the concentration at which inhibition is half-maximal – was more than 10 µM.

`COc1ccc(CN2C(=O)c3cc(OCc4ccccc4)cc4c3c2cc2cc(OC)c(OCc3ccccc3)c(OC)c24)cc1`: the IC50 is more than 100 µM.

Regarding `COc1cc2c3c(cc4cc(OC)c(O)c(OC)c4c3c1)N(C)C2=O`, 1.6 µM corresponded to half-maximal inhibition (IC50).

`COc1cc2c3c(cc4ccc(O)cc4c3c1)N(CCCN(C)C)C2=O` returned an IC50 of 1.6 µM.

Consider `COc1ccc2cc3c4c(cc(OC)cc4c2c1)C(=O)N3CCC=O`, for which it took 5.2 µM to reach half-maximal inhibition (IC50).

Take `COc1cc2cc3c4c(cccc4c2c(OC)c1O)C(=O)N3CCCCN(C)C`: the IC50 is 1.8 µM.

`COc1cc2cc3c4c(cccc4c2c(OC)c1OCc1ccccc1)C(=O)N3CCCCN(C)C`: it took 10.8 µM to reach half-maximal inhibition (IC50).

Regarding `CCN(CC)CCN1C(=O)c2cc(OC)cc3c2c1cc1cc(OC)c(O)c(OC)c13`, half-maximal inhibition (IC50) required 2.3 µM.

For `COc1cc2c3c(cc4cc(OC)c(O)c(OC)c4c3c1)N(CCCN(C)C)C2=O`, the IC50 stood at 5.4 µM.

The molecule `COc1ccc(CN2C(=O)c3cc(OC)cc4c3c2cc2cc(OC)c(OC)c(OC)c24)cc1` returned a half-inhibitory concentration (IC50) of more than 10 µM.

Take `CCOC(CCCN1C(=O)c2cccc3c2c1cc1cc(OC)c(OCc2ccccc2)c(OC)c13)OCC`: the IC50 was 21.2 µM.

The molecule `COc1cc2c3c(cc4cc(OC)c(OCc5ccccc5)c(OC)c4c3c1)N(CCC=O)C2=O` gave an IC50 of 4.7 µM.

Molecule `COc1ccc(CN2C(=O)c3cc(O)cc4c3c2cc2cc(OC)c(O)c(OC)c24)cc1` registered an IC50 of 2.6 µM.

In turn, `CCOC(CCN1C(=O)c2cc(OC)cc3c2c1cc1ccc(OC)cc13)OCC` yielded an IC50 of more than 10 µM.

The molecule `COc1ccc(CN2C(=O)c3cc(OC)cc4c3c2cc2cc(OC)ccc24)cc1` showed an IC50 of 66.6 µM.

`COc1cc2c(cc3c4c(cc5c(c42)OCO5)C(=O)N3CCCN(C)C)c(OC)c1OC(C)C` came in with an IC50 of 4.3 µM.

As to `CN1C(=O)c2ccc(OCc3ccccc3)c3c2c1cc1cc(OCc2ccccc2)ccc13`, half-maximal inhibition (IC50) required 79.2 µM.

`CCOC(CCN1C(=O)c2cc3c(c4c2c1cc1c(OC)c(OC(C)C)c(OC)cc14)OCO3)OCC` gave an IC50 of 16.3 µM.

On to `COc1cc2cc3c4c(cccc4c2c(OC)c1OCc1ccccc1)C(=O)N3CCCC=O`, for which inhibition was half-maximal at 17.6 µM (IC50).

In turn, `COc1cc2c(cc3c4c(cc5c(c42)OCO5)C(=O)N3CCC=O)c(OC)c1OC(C)C` yielded an IC50 of 7.8 µM.
